Source: patent US20230338337A1, “BIOMARKERS FOR CANCER THERAPY USING MDM2 ANTAGONISTS” (OTSUKA PHARMACEUTICAL CO., LTD., priority 2019, published 2023)
Where two headings read alike, the source gives them in different places.

Legend:
[1] = system: SJSA-1 (p53 wild-type, MDM2 amplified osteosarcoma); test: Protocol A: SRB growth inhibition assay; conditions: read-out: SJSA-1 IC50 (μM) (Protocol A)
SJSA-1 = test: Protocol B: CellTiter-Glo cell viability assay
[2] = target: MDM2-p53 interaction (in vitro translated MDM2) (Homo sapiens (Human), UniProt Q00987); test: MDM2-p53 interaction 96-well plate binding assay (ELISA); conditions: for MDM2 % inhibition at 0.0010: at 0.0010 μM
MDM2-p53 interaction (in vitro translated MDM2), sequence (Q00987 whole entry): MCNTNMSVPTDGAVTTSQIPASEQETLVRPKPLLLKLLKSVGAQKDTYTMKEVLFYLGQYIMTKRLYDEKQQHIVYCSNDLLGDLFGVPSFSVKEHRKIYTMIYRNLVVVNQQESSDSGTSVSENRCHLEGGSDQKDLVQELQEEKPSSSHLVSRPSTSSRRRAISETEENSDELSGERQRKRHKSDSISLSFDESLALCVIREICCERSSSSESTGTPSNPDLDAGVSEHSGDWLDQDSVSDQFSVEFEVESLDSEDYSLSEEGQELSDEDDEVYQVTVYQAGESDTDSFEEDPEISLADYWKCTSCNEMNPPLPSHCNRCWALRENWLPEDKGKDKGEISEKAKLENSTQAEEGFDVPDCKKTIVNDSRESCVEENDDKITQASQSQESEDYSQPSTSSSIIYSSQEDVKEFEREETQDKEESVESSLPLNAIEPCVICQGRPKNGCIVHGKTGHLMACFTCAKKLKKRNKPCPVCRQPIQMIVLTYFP

SN40R2 = test: Protocol B: CellTiter-Glo cell viability assay; conditions: read-out: SN40R2 (Protocol B) % inhibition at 10, Protocol B
[3] = read-out: SJSA1 IC50 (μM) (Protocol B), Protocol B

1-({[(1R)-1-(4-chlorophenyl)-2-[(5-chloropyridin-2-yl)methyl]-7-fluoro-5-{1-hydroxy-1-[1-(2-hydroxyethyl)piperidin-4-yl]ethyl}-3-oxo-2,3-dihydro-1H-isoindol-1-yl]oxy}methyl)cyclopropane-1-carbonitrile [Example 420]
IC50 [1]: 0.49 µM | IC50 (SJSA-1; [3]): 0.87 µM | MDM2 % at concentration [2]: 68%@0.0010

1-({[(1R)-1-(4-chlorophenyl)-2-[(5-chloropyrimidin-2-yl)methyl]-7-fluoro-5-[1-hydroxy-1-(1-methyl-1H-imidazol-4-yl)propyl]-3-oxo-2,3-dihydro-1H-isoindol-1-yl]oxy}methyl)cyclopropane-1-carboxamide [Example 486]
IC50 [1]: 0.075 µM | IC50 (SJSA-1; [3]): 0.051 µM | MDM2 % inhibition at 0.0010 [2]: 59%@0.0010

2-{[(1R)-1-(4-chlorophenyl)-1-[(1-cyanocyclopropyl)methoxy]-7-fluoro-5-[1-hydroxy-1-(1-methyl-1H-imidazol-4-yl)propyl]-3-oxo-2,3-dihydro-1H-isoindol-2-yl]methyl}pyrimidine-5-carbonitrile [Example 462]
IC50 [1]: 0.073 µM | IC50 (SJSA-1; [3]): 0.047 µM | MDM2 % inhibition at 0.0010 [2]: 80%@0.0010

2-{[(1R)-1-(4-chlorophenyl)-7-fluoro-1-({1-[hydroxydideuteromethyl]cyclopropyl}dideuteromethoxy)-5-(2-hydroxypropan-2-yl)-3-oxo-2,3-dihydro-1H-isoindol-2-yl]methyl}pyrimidine-5-carbonitrile [Example 513]
IC50 [1]: 0.26 µM | IC50 (SJSA-1; [3]): 0.38 µM | IC50 ([2]; read-out: MDM2 IC50): 3.1 nM

2-{[(1R)-1-(4-chlorophenyl)-7-fluoro-5-[1-(4-fluoro-1-methylpiperidin-4-yl)-1-hydroxypropyl]-1-methoxy-3-oxo-2,3-dihydro-1H-isoindol-2-yl]methyl}pyrimidine-5-carbonitrile [Example 575]
IC50 [1]: 0.028 µM | IC50 (SJSA-1; [3]): 0.066 µM | MDM2 % inhibition at 0.0010 [2]: 38%@0.0010

2-{[(1R)-1-(4-chlorophenyl)-7-fluoro-5-[1-(4-fluoro-1-methylpiperidin-4-yl)-1-hydroxypropyl]-3-oxo-1-[(3S)-oxolan-3-yloxy]-2,3-dihydro-1H-isoindol-2-yl]methyl}pyrimidine-5-carbonitrile [Example 561]
IC50 [1]: 0.021 µM | IC50 (SJSA-1; [3]): 0.065 µM | MDM2 % inhibition at 0.0010 [2]: 47%@0.0010

2-{[(1R)-1-(4-chlorophenyl)-7-fluoro-5-{1-hydroxy-1-[trans-4-hydroxycyclohexyl]propyl}-1-(2-hydroxyethoxy)-3-oxo-2,3-dihydro-1H-isoindol-2-yl]methyl}pyrimidine-5-carbonitrile [Example 510]
IC50 [1]: 0.084 µM | IC50 (SJSA-1; [3]): 0.073 µM | MDM2 % inhibition at 0.0010 [2]: 79%@0.0010

6-{[(1R)-1-(4-chlorophenyl)-7-fluoro-5-{1-hydroxy-1-[trans-4-hydroxycyclohexyl]propyl}-3-oxo-1-[cis-3-hydroxycyclobutoxy]-2,3-dihydro-1H-isoindol-2-yl]methyl}pyridine-3-carbonitrile [Example 518]
IC50 [1]: 0.058 µM | IC50 (SJSA-1; [3]): 0.065 µM | MDM2 % inhibition at 0.0010 [2]: 79%@0.0010

CC(O)(c1cc(F)c2c(c1)C(=O)N(Cc1ncc(Cl)cn1)[C@@]2(OCC1(CO)CC1)c1ccc(Cl)cc1)[C@H]1CC[C@H](O)CC1 (stereo partly drawn) [Example 401, (3R)-3-(4-chlorophenyl)-2-[(5-chloropyrimidin-2-yl)methyl]-4-fluoro-6-{1-hydroxy-1-[trans-4-hydroxycyclohexyl]ethyl}-3-{[1-(hydroxymethyl)cyclopropyl]methoxy}-2,3-dihydro-1H-isoindol-1-one]
IC50 (SJSA-1; [3]): 0.0098 µM | inhibition at 10 µM (SN40R2): 6%

CCC(O)(c1cc(F)c2c(c1)C(=O)N(Cc1ccc(C#N)cn1)[C@@]2(OCC1(F)COC1)c1ccc(Cl)cc1)c1cn(C)cn1 (stereo partly drawn) [Example 435, 6-{[(1R)-1-(4-chlorophenyl)-7-fluoro-1-[(3-fluorooxetan-3-yl)methoxy]-5-[1-hydroxy-1-(1-methyl-1H-imidazol-4-yl)propyl]-3-oxo-2,3-dihydro-1H-isoindol-2-yl]methyl}pyridine-3-carbonitrile]
IC50 (SJSA-1; Homo sapiens, SJSA-1, read-out: SJSA1 IC50 (μM) (Protocol B), Protocol B): 0.015 µM | inhibition at 10 µM (SN40R2): 0%

CCC(O)(c1cc(F)c2c(c1)C(=O)N(Cc1ccc(C#N)cn1)[C@@]2(O[C@H]1CCOC1)c1ccc(Cl)cc1)C1(F)CCOCC1 (stereo partly drawn) [Example 445, 6-{[(1R)-1-(4-chlorophenyl)-7-fluoro-5-[1-(4-fluorooxan-4-yl)-1-hydroxypropyl]-3-oxo-1-[(3S)-oxolan-3-yloxy]-2,3-dihydro-1H-isoindol-2-yl]methyl}pyridine-3-carbonitrile]
inhibition at 10 µM (SN40R2): 16%

(3R)-3-(4-chlorophenyl)-2-[(4-chlorophenyl)methyl]-4-fluoro-3-{[1-(hydroxymethyl)cyclopropyl]methoxy}-6-(2-hydroxypropan-2-yl)-2,3-dihydro-1H-isoindol-1-one [Example 2]
IC50 [1]: 1.7 µM | IC50 (SJSA-1; [3]): 3.4 µM

(3R)-3-(4-chlorophenyl)-2-[(5-chloropyridin-2-yl)methyl]-4-fluoro-6-[1-(4-fluoropiperidin-4-yl)-1-hydroxypropyl]-3-[(3S)-oxolan-3-yloxy]-2,3-dihydro-1H-isoindol-1-one [Example 548]
IC50 [1]: 0.14 µM | IC50 (SJSA-1; [3]): 0.17 µM | MDM2 % inhibition at 0.0010 [2]: 82%@0.0010

(3R)-3-(4-chlorophenyl)-2-[(5-chloropyrimidin-2-yl)methyl]-4-fluoro-3-[(3-fluorooxetan-3-yl)methoxy]-6-[1-hydroxy-1-(1-methylpiperidin-4-yl)ethyl]-2,3-dihydro-1H-isoindol-1-one [Example 558]
IC50 [1]: 0.22 µM | IC50 (SJSA-1; [3]): 0.082 µM | MDM2 % inhibition at 0.0030 ([2]; at 0.0030 μM): 53%@0.0030

(3R)-3-(4-chlorophenyl)-2-[(5-chloropyrimidin-2-yl)methyl]-4-fluoro-6-[1-(4-fluoro-1-methylpiperidin-4-yl)-1-hydroxypropyl]-3-[(3S)-oxolan-3-yloxy]-2,3-dihydro-1H-isoindol-1-one [Example 571]
IC50 [1]: 0.023 µM | IC50 (SJSA-1; [3]): 0.0085 µM | MDM2 % inhibition at 0.0010 [2]: 77%@0.0010

(3R)-3-(4-chlorophenyl)-2-[(5-chloropyrimidin-2-yl)methyl]-4-fluoro-6-[1-(4-fluoropiperidin-4-yl)-1-hydroxypropyl]-3-[(3S)-oxolan-3-yloxy]-2,3-dihydro-1H-isoindol-1-one [Example 541]
IC50 [1]: 0.19 µM | MDM2 % inhibition at 0.00030 ([2]; at 0.00030 μM): 64%@0.0003

(3R)-3-(4-chlorophenyl)-2-[(5-chloropyrimidin-2-yl)methyl]-4-fluoro-6-[1-(4-fluoropiperidin-4-yl)-1-hydroxypropyl]-3-methoxy-2,3-dihydro-1H-isoindol-1-one [Example 544]
IC50 [1]: 0.032 µM | MDM2 % inhibition at 0.0010 [2]: 86%@0.0010

(3R)-3-(4-chlorophenyl)-2-[(5-chloropyrimidin-2-yl)methyl]-4-fluoro-6-[1-[4-fluoro-1-(oxetan-3-yl)piperidin-4-yl]-1-hydroxypropyl]-3-methoxy-2,3-dihydro-1H-isoindol-1-one [Example 552]
IC50 [1]: 0.028 µM | IC50 (SJSA-1; [3]): 0.02 µM | MDM2 % inhibition at 0.0010 [2]: 79%@0.0010

(3R)-3-(4-chlorophenyl)-2-[(5-chloropyrimidin-2-yl)methyl]-4-fluoro-6-[1-hydroxy-1-(1-methyl-1H-imidazol-4-yl)propyl]-3-[(3S)-oxolan-3-yloxy]-2,3-dihydro-1H-isoindol-1-one [Example 475]
IC50 [1]: 0.028 µM | MDM2 % inhibition at 0.0010 [2]: 71%@0.0010

(3R)-3-(4-chlorophenyl)-2-[(5-chloropyrimidin-2-yl)methyl]-4-fluoro-6-[1-hydroxy-1-(1-methyl-1H-imidazol-4-yl)propyl]-3-{[1-(hydroxymethyl)cyclopropyl]methoxy}-2,3-dihydro-1H-isoindol-1-one [Example 477]
IC50 [1]: 0.013 µM | IC50 (SJSA-1; [3]): 0.0091 µM | MDM2 % inhibition at 0.0010 [2]: 86%@0.0010

(3R)-3-(4-chlorophenyl)-2-[(5-chloropyrimidin-2-yl)methyl]-4-fluoro-6-[1-hydroxy-1-(1-methylpiperidin-4-yl)ethyl]-3-{[1-(hydroxymethyl)cyclopropyl]methoxy}-2,3-dihydro-1H-isoindol-1-one [Example 554]
IC50 [1]: 0.21 µM | IC50 (SJSA-1; [3]): 0.07 µM | MDM2 % inhibition at 0.0010 [2]: 74%@0.0010

(3R)-3-(4-chlorophenyl)-2-[(5-chloropyrimidin-2-yl)methyl]-4-fluoro-6-[(1S)-1-hydroxy-1-(1-methylpiperidin-4-yl)propyl]-3-{[1-(hydroxymethyl)cyclopropyl]methoxy}-2,3-dihydro-1H-isoindol-1-one [Example 556]
IC50 [1]: 0.056 µM | IC50 (SJSA-1; [3]): 0.0064 µM | MDM2 % inhibition at 0.0010 [2]: 91%@0.0010

(3R)-3-(4-chlorophenyl)-2-[(5-chloropyrimidin-2-yl)methyl]-4-fluoro-6-[(1S)-1-hydroxy-1-[1-(oxetan-3-yl)piperidin-4-yl]propyl]-3-methoxy-2,3-dihydro-1H-isoindol-1-one [Example 551]
IC50 [1]: 0.031 µM | MDM2 % inhibition at 0.0010 [2]: 70%@0.0010

(3R)-3-(4-chlorophenyl)-2-[(5-chloropyrimidin-2-yl)methyl]-4-fluoro-6-{1-hydroxy-1-[trans-4-hydroxycyclohexyl]propyl}-3-(2-hydroxyethoxy)-2,3-dihydro-1H-isoindol-1-one [Example 517]
IC50 [1]: 0.019 µM | MDM2 % inhibition at 0.0010 [2]: 82%@0.0010
